Key:
[1] = Fraction unbound in incubation mixture containing human recombinant UGT1A9 at 1 to 250 uM after 10 mins by ultrafiltration method in absence of fatty acid free BSA
[2] = Drug metabolism in human liver microsomes assessed as glucuronidation after 10 mins by Michaelis-Menten plot analysis in presence of UDPGA and absence of fatty acid free BSA; format: ADME; settings: read-out: Km(unbound)
[3] = Fraction unbound incubation mixture containing human recombinant UGT1A9 at 1 to 250 uM after 10 mins by ultrafiltration method in presence of 0.1% fatty acid free BSA
Liver microsome [4] = assay: Unbound intrinsic clearance in human liver microsomes assessed per mg of protein after 10 mins in presence of UDPGA and 0.1% fatty acid free BSA; format: ADME
[5] = Drug metabolism in human liver microsomes assessed as glucuronidation after 10 mins by Michaelis-Menten plot analysis in presence of UDPGA and 2% fatty acid free BSA; format: ADME; settings: read-out: Km(unbound)
[6] = molecular target: T1, UDP-glucuronosyltransferase 1A10 (Homo sapiens, UniProt Q9HAW8); assay: Activity of recombinant human UGT1A10 expressed in baculovirus-infected insect cells assessed as enzyme-mediated glucuronidation per mg of protein after 10 mins in presence of UDPGA; format: ADME
T1 sequence (Q9HAW8 whole entry): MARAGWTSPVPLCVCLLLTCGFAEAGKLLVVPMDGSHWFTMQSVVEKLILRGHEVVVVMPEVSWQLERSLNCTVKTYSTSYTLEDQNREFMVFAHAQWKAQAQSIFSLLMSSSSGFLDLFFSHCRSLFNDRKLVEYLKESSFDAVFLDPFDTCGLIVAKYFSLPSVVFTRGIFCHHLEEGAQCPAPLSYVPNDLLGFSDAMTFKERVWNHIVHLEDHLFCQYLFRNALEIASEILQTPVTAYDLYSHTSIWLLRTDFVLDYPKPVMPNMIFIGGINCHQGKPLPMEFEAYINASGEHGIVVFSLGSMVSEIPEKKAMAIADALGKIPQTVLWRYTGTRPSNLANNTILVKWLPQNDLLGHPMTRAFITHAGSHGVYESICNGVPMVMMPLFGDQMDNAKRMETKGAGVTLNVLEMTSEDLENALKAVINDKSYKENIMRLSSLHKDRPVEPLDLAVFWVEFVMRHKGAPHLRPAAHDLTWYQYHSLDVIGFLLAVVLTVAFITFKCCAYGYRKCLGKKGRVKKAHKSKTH

Liver microsome [7] = assay: Unbound intrinsic clearance in human liver microsomes assessed per mg of protein after 10 mins in presence of UDPGA and 0.5% fatty acid free BSA; format: ADME
[8] = molecular target: T2, UDP-glucuronosyltransferase 2B15 (Homo sapiens, UniProt P54855); assay: Activity of human recombinant UGT2B15 expressed in baculovirus-infected insect cells assessed as enzyme-mediated glucuronidation per mg of protein after 10 mins in presence of UDPGA; format: ADME
T2 sequence (P54855 whole entry): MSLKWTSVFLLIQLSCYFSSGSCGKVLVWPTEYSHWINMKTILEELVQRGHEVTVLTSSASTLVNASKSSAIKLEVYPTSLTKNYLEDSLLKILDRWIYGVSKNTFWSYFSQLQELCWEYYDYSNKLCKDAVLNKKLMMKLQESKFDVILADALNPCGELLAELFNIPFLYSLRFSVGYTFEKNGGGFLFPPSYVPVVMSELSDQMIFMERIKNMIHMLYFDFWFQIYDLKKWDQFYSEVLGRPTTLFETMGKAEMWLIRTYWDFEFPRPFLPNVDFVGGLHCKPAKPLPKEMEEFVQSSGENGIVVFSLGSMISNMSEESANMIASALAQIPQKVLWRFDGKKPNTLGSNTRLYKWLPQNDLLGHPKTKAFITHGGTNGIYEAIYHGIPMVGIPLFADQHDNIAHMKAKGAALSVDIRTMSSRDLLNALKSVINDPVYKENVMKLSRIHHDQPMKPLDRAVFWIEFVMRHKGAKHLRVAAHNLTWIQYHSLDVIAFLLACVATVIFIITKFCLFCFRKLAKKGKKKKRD

[9] = molecular target: T3, UDP-glucuronosyltransferase 1A6 (Homo sapiens, UniProt P19224); assay: Activity of human recombinant UGT1A6 expressed in baculovirus-infected insect cells assessed as enzyme-mediated glucuronidation per mg of protein after 10 mins in presence of UDPGA; format: ADME
T3 sequence (P19224 whole entry): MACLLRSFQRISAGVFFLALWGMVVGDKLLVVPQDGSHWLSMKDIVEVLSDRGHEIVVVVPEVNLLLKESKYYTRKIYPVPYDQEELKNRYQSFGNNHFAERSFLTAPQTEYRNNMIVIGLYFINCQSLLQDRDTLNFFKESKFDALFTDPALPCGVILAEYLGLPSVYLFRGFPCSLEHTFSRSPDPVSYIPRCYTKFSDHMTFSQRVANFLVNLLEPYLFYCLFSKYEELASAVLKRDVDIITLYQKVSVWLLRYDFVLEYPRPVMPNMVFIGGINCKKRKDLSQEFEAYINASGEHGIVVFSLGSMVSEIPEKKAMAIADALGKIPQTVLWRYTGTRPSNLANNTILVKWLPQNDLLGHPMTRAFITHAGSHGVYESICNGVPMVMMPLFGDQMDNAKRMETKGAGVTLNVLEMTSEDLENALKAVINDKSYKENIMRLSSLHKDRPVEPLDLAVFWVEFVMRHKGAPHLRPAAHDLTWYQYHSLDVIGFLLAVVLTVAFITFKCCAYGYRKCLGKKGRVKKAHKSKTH

[10] = molecular target: T4, UDP-glucuronosyltransferase 1A7 (Homo sapiens, UniProt Q9HAW7); assay: Activity of human recombinant UGT1A7 expressed in baculovirus-infected insect cells assessed as intrinsic clearance for enzyme-mediated glucuronide formation per mg of protein at 1 to 250 uM after 10 mins by Michaelis-Menten plot analysis in presence of UDPGA; format: ADME
T4 sequence (Q9HAW7 whole entry): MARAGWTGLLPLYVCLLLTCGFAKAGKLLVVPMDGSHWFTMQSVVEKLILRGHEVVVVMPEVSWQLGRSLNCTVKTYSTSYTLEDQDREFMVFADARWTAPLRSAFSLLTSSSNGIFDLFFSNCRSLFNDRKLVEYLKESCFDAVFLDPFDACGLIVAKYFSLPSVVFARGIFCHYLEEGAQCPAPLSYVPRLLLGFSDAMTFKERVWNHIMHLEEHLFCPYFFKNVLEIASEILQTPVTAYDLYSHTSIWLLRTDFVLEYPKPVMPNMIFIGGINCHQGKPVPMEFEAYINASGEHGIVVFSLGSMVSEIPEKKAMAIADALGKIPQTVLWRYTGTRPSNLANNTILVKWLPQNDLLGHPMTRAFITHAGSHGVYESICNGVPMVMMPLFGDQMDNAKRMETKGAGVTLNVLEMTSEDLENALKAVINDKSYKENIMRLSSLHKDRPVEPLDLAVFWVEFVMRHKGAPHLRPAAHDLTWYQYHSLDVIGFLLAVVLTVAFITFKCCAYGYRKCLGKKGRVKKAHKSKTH

Km at 10 min [2]: 216 µM
CL free (Liver microsome [4]): 184 µL/min/mg
Km at 10 min [5]: 17.6 µM
Drug metabolism [6]: 0.516 nmol/min/mg
CL free (Liver microsome [7]): 184 µL/min/mg
Drug metabolism [8]: < 0.01 nmol/min/mg
Drug metabolism [9]: < 0.01 nmol/min/mg
clearance [10]: 12.3 µL/min/mg
SMILES: COc1ccc(C(=O)Nc2cccc(O)c2NC(=O)c2ccc(N3CCCN(C)CC3)cc2)cc1.O=C(O)CCC(=O)O
Fu [1]: 0.879
Fu [3]: 0.755
